Experimental data published in EP2348131A1, “Low levels of cytidine deaminase as a marker for genetic predisposition to develop cancer” (Institut Curie, priority 2010, dated 2011).

What was measured:
BS cells = experiment: Sister chromatid exchange assay in BS cells cultured with deoxynucleosides; assay type: cell-based, human; conditions: BS cells (BS-GFP), 25 µM dU or T in culture medium, 2 x 48 h
Protocol: The BS SV40-transformed fibroblast cell line GM08505B was cultured as previously described (Dutertre S et al., Oncogene 19, 2731-8, 2000). BS-GFP-BLM cells were obtained by transfecting BS GM08505B cells with an empty EGFP-C1 vector (Clontech, Mountain View, CA), or a EGFP-C1 vector containing the full length BLM cDNA (Eladad et al., Hum Mol Genet 14, 1351-65, 2005), respectively, using JetPEI reagent (Ozyme). After 48 hr, selection with 800 to 1600 µg/ml of G418 (Invitrogen) was applied. Individual colonies were isolated and maintained in DMEM supplemented with 800 µg/ml G418.
All cell lines were cultured in DMEM with 10% fetal calf serum (PAN laboratories) either not dialyzed (Lot P282710) or dialyzed (Lot P5940309) for nucleoside complementation experiments and dNTP assays. […]
After treatment, cells were transferred to slides and cultured in the presence of 10 µM 5-bromodeoxyuridine (Sigma) at 37°C, under an atmosphere containing 5% CO2. After 40 hours, Colchicine (Sigma) was added to a final concentration of 0.1 µg/ ml for 1 hour. Cells were incubated in hypotonic solution (1:6 (vol/vol) FCS-distilled water) and fixed with 3:1 (vol/vol) methanol-acetic acid. […] Metaphases were captured with a SONY DXC 930 P camera and SCEs or chromosomal aberrations were analyzed.

[1] = system: BLM-complemented BS cells; experiment: Sister chromatid exchange assay in BLM-complemented BS cells; assay type: cell-based, human; conditions: BLM-complemented BS cells (BS-GFP-BLM), 25 mM dU or T in culture medium, 2 x 48 h
Protocol: HeLa cells were used, as previously described (Dutertre S et al., Oncogene 19, 2731-8, 2000). HEK293 cells were cultured as HeLa cells. HeLaV cells and HeLashBLM cells, HEK293V and HEK293shBLM were obtained by transfecting HeLa and HEK cells with an empty pSM2 vector or a pSM2 vector encoding a short hairpin RNA sequence directed against BLM (Open Biosystems, clone V2HS-89234), respectively, using JetPEI reagent (Ozyme) according to the manufacturer's instructions. After 48 hours, selection with 1 to 5 µg/ ml puromycin (Invivogen) was applied for HeLa cells and with 7 to12 µg/ml puromycin for HEK cells. Individual colonies were isolated and maintained in growth medium containing 0.5 µg/ ml puromycin for Hela cells or 10µg/ml puromycin for HEK cells. For siRNAs transient transfection assays, 3-4 x 10^5 cells were seeded in 3 ml of medium in each well of a six-well plate. […]
After treatment, cells were transferred to slides and cultured in the presence of 10 µM 5-bromodeoxyuridine (Sigma) at 37°C, under an atmosphere containing 5% CO2. […] Metaphases were captured with a SONY DXC 930 P camera and SCEs or chromosomal aberrations were analyzed.

SMILES	SCEs frequency (BS cells)	SCEs frequency [1]
O=c1ccn([C@H]2C[C@H](O)[C@@H](CO)O2)c(=O)[nH]1 [dU, deoxyuridine]	significant decrease	did not affect
Cc1cn([C@H]2C[C@H](O)[C@@H](CO)O2)c(=O)[nH]c1=O [T, thymidine]	significant decrease	did not affect
